Experimental data published in ChEMBL document CHEMBL4393656, “Cationic biaryl 1,2,3-triazolyl peptidomimetic amphiphiles targeting Clostridioides (Clostridium) difficile: Synthesis, antibacterial evaluation and an in vivo C. difficile infection model” (Eur J Med Chem, 2019).
≈ marks a conversion by molar mass, not a printed value. Calls of active or inactive are those of the source. The rule behind the calls is not given here.

Key:
Staphylococcus aureus [1] = test: Induction of cytoplasmic membrane permeabilization in Staphylococcus aureus ATCC 29213 at 32 ug/ml by propidium iodide staining based fluorescence method relative to control
Clostridioides difficile [2] = test: (§1) Antibacterial activity against Clostridium difficile ribotype 027 M7404 spores infected in antibiotic cocktail-induced CDI C57BL/6J mouse model assessed as decrease in fecal spore load at 100 mg/kg administered via oral gavage for every 12 hrs starting from 6 hrs post-infection and measured at 24 hrs post infection by heat shock based plating method; format: functional, organism-based; conditions: genomovar ribotype 027 M7404
Escherichia coli [3] = test: Induction of cytoplasmic membrane permeabilization in Escherichia coli NCTC 10418 at 32 ug/ml by propidium iodide staining based fluorescence method; format: organism-based
Clostridioides difficile [4] = test: Antibacterial activity against Clostridium difficile NSW132 RT027 incubated for 2 to 4 hrs in pre-reduced brucella broth supplemented with haemin/vitamin K and further incubation in anaerobic condition for 48 hrs; format: functional
Enterococcus faecalis = test: Growth inhibition of Enterococcus faecalis ATCC 29212 incubated in MHB broth for 24 hrs; format: organism-based
Staphylococcus aureus [5] = test: Induction of cytoplasmic membrane depolarization in Staphylococcus aureus ATCC 29213 at 32 ug/ml by DiSC3-5 dye based fluorescence method; format: organism-based
Clostridioides difficile [6] = test: as §1, with “diarrhea” for “fecal spore load”, “infection” for “infection by heat shock based plating method”; format: functional, organism-based; conditions: genomovar ribotype 027 M7404
Staphylococcus aureus [7] = test: Growth inhibition of Staphylococcus aureus ATCC 29213 incubated in MHB broth for 24 hrs; format: organism-based
Acinetobacter baumannii = test: Growth inhibition of Acinetobacter baumannii ATCC 19606 incubated for 18 hrs without shaking by absorbance based monochromator plate reader analysis; format: organism-based, ATCC 19606 = CIP 70.34 = JCM 6841; conditions: in vitro
Escherichia coli [8] = test: Induction of cytoplasmic membrane depolarization in Escherichia coli NCTC 10418 at 64 ug/ml by DiSC3-5 dye based fluorescence method; format: organism-based
[9] = Haemolytic activity in sheep erythrocytes assessed as induction of haemolysis at 5 ug/ml incubated for 2 hrs relative to control; format: cell-based, Ovis aries, Erythrocyte; conditions: read-out: Activity
Escherichia coli [10] = test: Growth inhibition of Escherichia coli ATCC 25922 incubated for 18 hrs; format: organism-based
Staphylococcus aureus [11] = test: Induction of cytoplasmic membrane permeabilization in Staphylococcus aureus ATCC 29213 at 32 ug/ml measured after 10 mins by propidium iodide staining based fluorescence method; format: organism-based
Clostridioides difficile [12] = test: as §1, with “weight loss” for “fecal spore load”, “infection” for “infection by heat shock based plating method”; format: functional, organism-based; conditions: genomovar ribotype 027 M7404
Clostridioides difficile [13] = test: Antibacterial activity against Clostridium difficile ATCC 700057 incubated for 2 to 4 hrs in pre-reduced brucella broth supplemented with haemin/vitamin K and further incubation in anaerobic condition for 48 hrs; format: functional
Streptococcus pneumoniae = test: Growth inhibition of Streptococcus pneumoniae ATCC 49619 incubated in MHB medium with lysed horse blood and 5% CO2 for 24 hrs; format: organism-based
Clostridioides difficile [14] = test: as §1, with “protection against bacterial infection” for “decrease in fecal spore load”, “2 days” for “24 hrs”, “infection” for “infection by heat shock based plating method”; format: functional, organism-based; conditions: genomovar ribotype 027 M7404
Pseudomonas aeruginosa = test: Growth inhibition of Pseudomonas aeruginosa ATCC 27853 incubated for 18 hrs; format: organism-based
Staphylococcus aureus [15] = test: Growth inhibition of methicillin-resistant Staphylococcus aureus ATCC 43300 incubated for 18 hrs; format: organism-based
Klebsiella pneumoniae = test: Growth inhibition of Klebsiella pneumoniae ATCC 700603 incubated for 18 hrs; format: organism-based
[16] = Haemolytic activity in sheep erythrocytes assessed as induction of haemolysis at 50 ug/ml incubated for 2 hrs relative to control; format: cell-based, Ovis aries, Erythrocyte; conditions: read-out: Activity
[17] = Cytotoxicity against HEK293 cells assessed as decrease in cell viability after 20 hrs by resazurin dye-based fluorescence assay; conditions: human
[18] = Aqueous solubility of the DMSO-dissolved compound in >200 uL water at 5 mg; format: physicochemical; conditions: buffer
Escherichia coli [19] = test: Induction of cytoplasmic membrane permeabilization in Escherichia coli NCTC 10418 at 4 ug/ml by propidium iodide staining based fluorescence method; format: organism-based
Escherichia coli [20] = test: Induction of cytoplasmic membrane depolarization in Escherichia coli NCTC 10418 at 4 ug/ml by DiSC3-5 dye based fluorescence method; format: organism-based
Clostridioides difficile [21] = test: as §1, with “physiological appearance score” for “fecal spore load”, “infection” for “infection by heat shock based plating method”; format: functional, organism-based; conditions: genomovar ribotype 027 M7404
Clostridioides difficile [22] = test: Antibacterial activity against Clostridium difficile ribotype 027 M7404; format: functional; conditions: genomovar ribotype 027 M7404
Clostridioides difficile [23] = test: as §1, with “survival rate” for “decrease in fecal spore load”, “(reference value: 0%)” for “by heat shock based plating method”; format: functional, genomovar ribotype 027 M7404
[24] = Drug accumulation in blood of antibiotic cocktail-induced CDI C57BL/6J mouse model infected with Clostridium difficile ribotype 027 M7404 spores at 100 mg/kg administered via oral gavage for every 12 hrs starting from 6 hrs post-infection by LRMS analysis; format: ADME, organism-based; conditions: in vivo
[25] = Drug localization in blood of C57BL/6J mouse measured after 2 hr by LRMS analysis; format: ADME, tissue-based
[26] = Drug accumulation in feces of antibiotic cocktail-induced CDI C57BL/6J mouse model infected with Clostridium difficile ribotype 027 M7404 spores at 100 mg/kg administered via oral gavage for every 12 hrs starting from 6 hrs post-infection by LRMS analysis; format: ADME, organism-based; conditions: in vivo
Staphylococcus aureus [27] = test: Induction of cytoplasmic membrane permeabilization in Staphylococcus aureus ATCC 29213 at 32 ug/ml measured after 40 mins by propidium iodide staining based fluorescence method; format: organism-based
[28] = Solubility of the compound in 10% DMSO solution; format: physicochemical
Staphylococcus aureus [29] = test: Growth inhibition of methicillin resistant Staphylococcus aureus NCTC 10442 incubated in MHB medium for 24 hrs; format: organism-based
Staphylococcus aureus [30] = test: Induction of cytoplasmic membrane depolarization in Staphylococcus aureus ATCC 29213 at 8 ug/ml by DiSC3-5 dye based fluorescence method; format: organism-based
Staphylococcus aureus [31] = test: Induction of cytoplasmic membrane permeabilization in Staphylococcus aureus ATCC 29213 at 8 ug/ml by propidium iodide staining based fluorescence method; format: organism-based

Molecule | Activity (Clostridioides difficile [2]) | MIC (Clostridioides difficile [4]) | MIC (Enterococcus faecalis) | Activity (Clostridioides difficile [6]) | MIC (Staphylococcus aureus [7]) | MIC (Acinetobacter baumannii) | hemolysis at 2 h, 5 ug/ml [9] | MIC (Escherichia coli [10]) | Activity (Clostridioides difficile [12]) | MIC (Clostridioides difficile [13]) | MIC (Streptococcus pneumoniae) | Activity (Clostridioides difficile [14]) | MIC (Pseudomonas aeruginosa) | MIC (Staphylococcus aureus [15]) | MIC (Klebsiella pneumoniae) | hemolysis at 2 h, 50 ug/ml [16] | CC50 at 20 h [17] | Activity (Clostridioides difficile [21]) | further results
CC(C)CCOc1ccccc1-c1ccccc1OCc1cn([C@H](CCCNC(=N)N)C(=O)NC2CCCCC2)nn1.Cl | Active | 16 µg/mL | 4 µg/mL | Active | 4 µg/mL | 32 µg/mL | 1.4% | > 32 µg/mL | inactive | 8 µg/mL | 4 µg/mL | inactive | > 32 µg/mL | 4 µg/mL | > 32 µg/mL | 81.8% | 19.7 µg/mL | – | Activity (Staphylococcus aureus [1]): >500%; Activity (Escherichia coli [3]): Active; Activity (Staphylococcus aureus [5]): Active; Activity (Escherichia coli [8]): Active; Activity (Staphylococcus aureus [11]): Active
CC(C)CCOc1ccccc1-c1ccccc1OCc1cn([C@H](CCCCN)C(=O)NCC2CCCCC2)nn1.Cl | – | 32 µg/mL | 8 µg/mL | – | 8 µg/mL | 32 µg/mL | 0% | > 32 µg/mL | – | 16 µg/mL | 8 µg/mL | – | > 32 µg/mL | 8 µg/mL | > 32 µg/mL | 98% | 5.6 µg/mL | – | solubility [18]: Soluble
COLISTIN | – | – | – | – | – | – | – | – | – | – | – | – | – | – | – | – | – | – | Activity (Escherichia coli [19]): Active; Activity (Escherichia coli [20]): Active
CC(C)CCOc1ccc2ccccc2c1-c1c(OCC(=O)N[C@H](CCCNC(=N)N)C(=O)NCc2ccccc2)ccc2ccccc12.Cl | – | 8 µg/mL | 2 µg/mL | inactive | 2 µg/mL | > 32 µg/mL | 0.3% | > 32 µg/mL | inactive | 8 µg/mL | 2 µg/mL | inactive | > 32 µg/mL | 4 µg/mL | > 32 µg/mL | 100% | > 32 µg/mL | inactive | MIC (Clostridioides difficile [22]): 2 µg/mL
CC(C)CCOc1ccc2ccccc2c1-c1c(OCc2cn(C[C@@H](CCCCN)NC(=O)[C@@H](CCCNC(=N)N)NC(=O)CCc3ccccc3)nn2)ccc2ccccc12.Cl.Cl | – | – | – | Active | – | – | – | – | – | 8 µg/mL | – | – | – | – | – | – | – | – | Activity (Clostridioides difficile [23]): 50%; Drug uptake [24]: Not Active; Drug uptake [25]: Not Active; Drug uptake [26]: Active
CC(C)CCOc1ccccc1-c1ccccc1OCc1cn([C@H](CCCCN)C(=O)N[C@H](CCCNC(=N)N)Cn2cc(CCc3ccccc3)nn2)nn1.Cl.Cl | – | 16 µg/mL | 8 µg/mL | – | 4 µg/mL | 8 µg/mL | 1.4% | 8 µg/mL | – | 16 µg/mL | 8 µg/mL | – | 8 µg/mL | 2 µg/mL | 16 µg/mL | 12.6% | 16.4 µg/mL | – | Activity (Staphylococcus aureus [1]): >500%; Activity (Escherichia coli [3]): Active; Activity (Staphylococcus aureus [5]): Active; Activity (Escherichia coli [8]): Active; Activity (Staphylococcus aureus [27]): Active
CC(C)CCOc1ccccc1-c1ccccc1OCc1cn(C[C@@H](CCCCN)NC(=O)[C@@H](CCCNC(=N)N)n2cc(CC3CCCCC3)nn2)nn1.Cl.Cl | inactive | – | – | inactive | – | – | – | – | inactive | 1 µg/mL | – | inactive | – | – | – | – | – | inactive | –
CC(C)CCOc1ccc2ccccc2c1-c1c(OCC(=O)N[C@H](CCCNC(=N)N)Cn2cc(-c3ccccc3)nn2)ccc2ccccc12.Cl | – | – | – | – | – | – | – | – | – | 8 µg/mL | – | – | – | – | – | 86% | – | – | solubility [28]: Insoluble
CN[C@H](CC(C)C)C(=O)N[C@H]1C(=O)N[C@@H](CC(N)=O)C(=O)N[C@H]2C(=O)N[C@H]3C(=O)N[C@H](C(=O)N[C@H](C(=O)O)c4cc(O)cc(O)c4-c4cc3ccc4O)[C@H](O)c3ccc(c(Cl)c3)Oc3cc2cc(c3O[C@@H]2O[C@H](CO)[C@@H](O)[C@H](O)[C@H]2O[C@H]2C[C@](C)(N)[C@H](O)[C@H](C)O2)Oc2ccc(cc2Cl)[C@H]1O [VANCOMYCIN] | – | 0.5 µg/mL (≈ 0.345 µM) | 4 µg/mL (≈ 2.76 µM) | – | 1 µg/mL (≈ 0.69 µM) | – | – | – | – | 0.5 µg/mL (≈ 0.345 µM) | 1 µg/mL (≈ 0.69 µM) | – | – | 1 µg/mL (≈ 0.69 µM) | – | – | – | – | MIC (Staphylococcus aureus [29]): 1 µg/mL (≈ 0.69 µM); Activity (Staphylococcus aureus [30]): inactive; Activity (Staphylococcus aureus [31]): inactive
CC(C)CCOc1ccccc1-c1ccccc1OCc1cn(C[C@@H](CCCCN)NC(=O)[C@@H](CCCNC(=N)N)n2cc(C3CCCCC3)nn2)nn1.Cl.Cl | inactive | – | – | inactive | – | – | – | – | inactive | 4 µg/mL | – | inactive | – | – | – | – | – | inactive | –
